Data reported in the NIST ThermoML archive (doi:10.1021/je401036f).

Experiment: xn = mol fraction of the nth substance listed
Conditions: 101 kPa, Liquid; for viscosity: Concentric cylinders viscometry; for mass density: Vibrating tube method

CC(O)CN (stereo not given) [1-amino-2-propanol] + CCCCO
Conditions | mass density [kg/m3] | viscosity [mPa·s]
288.15 K, x1 = 0.1 | 827.167 | 4.019
288.15 K, x1 = 0.2005 | 841.339 | 4.952
288.15 K, x1 = 0.3 | 855.625 | 6.238
288.15 K, x1 = 0.3999 | 870.246 | 8.046
288.15 K, x1 = 0.5 | 885.14 | 10.48
288.15 K, x1 = 0.6001 | 900.478 | 13.85
288.15 K, x1 = 0.7 | 916.099 | 18.2
288.15 K, x1 = 0.8 | 932.069 | 24.34
288.15 K, x1 = 0.8997 | 948.249 | 32.26
288.15 K, x1 = 1 | 964.544 | 43.7
293.15 K, x1 = 0.1 | 823.338 | 3.444
293.15 K, x1 = 0.2005 | 837.455 | 4.218
293.15 K, x1 = 0.3 | 851.736 | 5.202
293.15 K, x1 = 0.3999 | 866.053 | 6.617
293.15 K, x1 = 0.5 | 881.2 | 8.455
293.15 K, x1 = 0.6001 | 896.524 | 10.88
293.15 K, x1 = 0.7 | 912.152 | 14.08
293.15 K, x1 = 0.8 | 928.119 | 18.34
293.15 K, x1 = 0.8997 | 944.296 | 23.93
293.15 K, x1 = 1 | 960.598 | 31.68
298.15 K, x1 = 0.1 | 819.488 | 2.989
298.15 K, x1 = 0.2005 | 833.571 | 3.62
298.15 K, x1 = 0.3 | 847.825 | 4.398
298.15 K, x1 = 0.3999 | 862.123 | 5.507
298.15 K, x1 = 0.5 | 877.169 | 6.858
298.15 K, x1 = 0.6001 | 892.563 | 8.782
298.15 K, x1 = 0.7 | 908.181 | 11.03
298.15 K, x1 = 0.8 | 924.144 | 14.18
298.15 K, x1 = 0.8997 | 940.31 | 18.16
298.15 K, x1 = 1 | 956.618 | 23.54
303.15 K, x1 = 0.1 | 815.611 | 2.615
303.15 K, x1 = 0.2005 | 829.669 | 3.129
303.15 K, x1 = 0.3 | 843.892 | 3.756
303.15 K, x1 = 0.3999 | 858.167 | 4.639
303.15 K, x1 = 0.5 | 873.195 | 5.721
303.15 K, x1 = 0.6001 | 888.575 | 7.156
303.15 K, x1 = 0.7 | 904.186 | 8.892
303.15 K, x1 = 0.8 | 920.144 | 11.17
303.15 K, x1 = 0.8997 | 936.303 | 14.06
303.15 K, x1 = 1 | 952.612 | 17.9
308.15 K, x1 = 0.1 | 811.706 | 2.298
308.15 K, x1 = 0.2005 | 825.735 | 2.726
308.15 K, x1 = 0.3 | 839.932 | 3.23
308.15 K, x1 = 0.3999 | 854.42 | 3.944
308.15 K, x1 = 0.5 | 869.288 | 4.788
308.15 K, x1 = 0.6001 | 884.561 | 5.904
308.15 K, x1 = 0.7 | 900.162 | 7.231
308.15 K, x1 = 0.8 | 916.116 | 8.949
308.15 K, x1 = 0.8997 | 932.266 | 11.1
308.15 K, x1 = 1 | 948.577 | 13.88
313.15 K, x1 = 0.1 | 807.768 | 2.03
313.15 K, x1 = 0.2005 | 821.766 | 2.389
313.15 K, x1 = 0.3 | 835.94 | 2.801
313.15 K, x1 = 0.3999 | 850.406 | 3.377
313.15 K, x1 = 0.5 | 865.257 | 4.049
313.15 K, x1 = 0.6001 | 880.518 | 4.929
313.15 K, x1 = 0.7 | 896.106 | 5.957
313.15 K, x1 = 0.8 | 912.054 | 7.272
313.15 K, x1 = 0.8997 | 928.196 | 8.9
313.15 K, x1 = 1 | 944.515 | 10.96
318.15 K, x1 = 0.1 | 803.791 | 1.801
318.15 K, x1 = 0.2005 | 817.764 | 2.104
318.15 K, x1 = 0.3 | 831.911 | 2.445
318.15 K, x1 = 0.3999 | 846.355 | 2.915
318.15 K, x1 = 0.5 | 861.194 | 3.454
318.15 K, x1 = 0.6001 | 876.438 | 4.159
318.15 K, x1 = 0.7 | 892.017 | 4.969
318.15 K, x1 = 0.8 | 907.96 | 5.989
318.15 K, x1 = 0.8997 | 924.096 | 7.238
318.15 K, x1 = 1 | 940.423 | 8.798
323.15 K, x1 = 0.1 | 799.764 | 1.606
323.15 K, x1 = 0.2005 | 813.705 | 1.865
323.15 K, x1 = 0.3 | 827.834 | 2.144
323.15 K, x1 = 0.3999 | 842.264 | 2.535
323.15 K, x1 = 0.5 | 857.087 | 2.973
323.15 K, x1 = 0.6001 | 872.324 | 3.541
323.15 K, x1 = 0.7 | 887.889 | 4.192
323.15 K, x1 = 0.8 | 903.828 | 4.994
323.15 K, x1 = 0.8997 | 919.961 | 5.96
323.15 K, x1 = 1 | 936.293 | 7.166
328.15 K, x1 = 0.1 | 795.685 | 1.436
328.15 K, x1 = 0.2005 | 809.606 | 1.662
328.15 K, x1 = 0.3 | 823.708 | 1.887
328.15 K, x1 = 0.3999 | 838.127 | 2.218
328.15 K, x1 = 0.5 | 852.936 | 2.579
328.15 K, x1 = 0.6001 | 868.161 | 3.047
328.15 K, x1 = 0.7 | 883.72 | 3.568
328.15 K, x1 = 0.8 | 899.655 | 4.211
328.15 K, x1 = 0.8997 | 915.789 | 4.976
328.15 K, x1 = 1 | 932.13 | 5.915
333.15 K, x1 = 0.1 | 791.549 | 1.302
333.15 K, x1 = 0.2005 | 805.451 | 1.499
333.15 K, x1 = 0.3 | 819.532 | 1.699
333.15 K, x1 = 0.3999 | 833.936 | 1.973
333.15 K, x1 = 0.5 | 848.734 | 2.286
333.15 K, x1 = 0.6001 | 863.951 | 2.663
333.15 K, x1 = 0.7 | 879.505 | 3.099
333.15 K, x1 = 0.8 | 895.441 | 3.618
333.15 K, x1 = 0.8997 | 911.577 | 4.225
333.15 K, x1 = 1 | 927.93 | 4.986
